According to ChEMBL document CHEMBL1128181, “Structure-based design of nonpeptidic HIV protease inhibitors from a cyclooctylpyranone lead structure” (J Med Chem, 1995):

Biological target: Human immunodeficiency virus type 1 protease (Human immunodeficiency virus 1, UniProt Q72874)
Assay: Inhibitory activity against HIV-I protease.

Ki [nM]	SMILES
330	CCC(c1ccccc1)c1c(O)c2c(oc1=O)C(C)CCCCCC2 (stereo unspecified)
58.3	CCC(c1ccccc1)c1c(O)c2c(oc1=O)CCCCCCC2 (stereo unspecified)
24	O=c1c2c(oc(O)c1C(c1ccccc1)C1CC1)C(CC1CC1)CCCCC2 (stereo unspecified)
57	O=c1c2c(oc(O)c1C(C1CC1)C1CC1)CCCCCCC2
5.5	CC(C)(C)OC(=O)NCC(=O)Nc1cccc(C(c2c(O)c3c(oc2=O)CCCCCC3)C2CC2)c1 (stereo unspecified)
9	CCCC1CCCCCCc2c1oc(O)c(C(c1ccccc1)C1CC1)c2=O (stereo in doubt; 11e)
31	CCCCC1CCCCCCc2c1oc(O)c(C(c1ccccc1)C1CC1)c2=O (stereo unspecified)
28	COCCC1CCCCCc2c1oc(O)c(C(c1ccccc1)C1CC1)c2=O (stereo unspecified)
266	CCC(c1ccccc1)c1c(O)c2c(oc1=O)C(Cc1ccccc1)CCCCCC2 (stereo unspecified)
11.7	OC1=C(C(c2ccccc2)C2CC2)COC2=C1CCCCCCC2 (stereo unspecified)
30	CC(C)CC1CCCCCCc2c1oc(O)c(C(c1ccccc1)C1CC1)c2=O (stereo unspecified)
470	O=C(/C=C/c1ccccc1)Nc1cccc(C(c2c(O)oc3c(c2=O)CCCCCC3)C2CC2)c1 (stereo unspecified)
33	O=C(Cc1ccccc1)Nc1cccc(C(c2c(O)oc3c(c2=O)CCCCCC3)C2CC2)c1 (stereo unspecified)
42	O=C(Nc1cccc(C(c2c(O)oc3c(c2=O)CCCCCC3)C2CC2)c1)c1ccccc1 (stereo unspecified)
120	O=c1c2c(oc(O)c1C(c1ccccc1)C1CC1)C(CC1CCCCO1)CCCCCC2 (stereo unspecified)
4	CC(C)(C)OC(=O)NCCC(=O)Nc1cccc(C(c2c(O)c3c(oc2=O)CCCCCC3)C2CC2)c1 (stereo unspecified)
55	O=C(Nc1cccc(C(c2c(O)oc3c(c2=O)CCCCCC3)C2CC2)c1)c1ccc(F)cc1 (stereo unspecified)
24	O=c1c2c(oc(O)c1C(c1ccccc1)C1CC1)C(CC1CC1)CCCCCC2 (stereo unspecified)
96	O=c1c2c(oc(O)c1C(c1ccccc1)C1CC1)CCCCCC2 (stereo unspecified)
26	CCCC1CCCCCCc2c1oc(O)c(C(c1ccccc1)C1CC1)c2=O (stereo in doubt; 11)
33	CCC1CCCCCCc2c1oc(O)c(C(c1ccccc1)C1CC1)c2=O (stereo unspecified)
50	CC(C)CCC1CCCCCCc2c1oc(O)c(C(c1ccccc1)C1CC1)c2=O (stereo unspecified)
450	O=C(Nc1ccccc1)Nc1cccc(C(c2c(O)oc3c(c2=O)CCCCCC3)C2CC2)c1 (stereo unspecified)
24	CCCC(=O)Nc1cccc(C(c2c(O)c3c(oc2=O)CCCCCC3)C2CC2)c1 (stereo unspecified)

SMILES	Ki [nM]
CC(C)(C)OC(=O)N1CCC[C@H]1C(=O)Nc1cccc(C(c2c(O)c3c(oc2=O)CCCCCC3)C2CC2)c1 (stereo partly specified)	43
C[C@@H](NC(=O)OC(C)(C)C)C(=O)Nc1cccc(C(c2c(O)c3c(oc2=O)CCCCCC3)C2CC2)c1 (stereo partly specified)	32
C[C@H](NC(=O)OC(C)(C)C)C(=O)Nc1cccc(C(c2c(O)c3c(oc2=O)CCCCCC3)C2CC2)c1 (stereo partly specified)	6.9
CC(C)(C)OC(=O)NCCCC(=O)Nc1cccc(C(c2c(O)c3c(oc2=O)CCCCCC3)C2CC2)c1 (stereo unspecified)	14
CC(C)(C)OC(=O)N[C@@H](Cc1cnc[nH]1)C(=O)Nc1cccc(C(c2c(O)c3c(oc2=O)CCCCCC3)C2CC2)c1 (stereo partly specified)	3
CCNC(=O)Nc1cccc(C(c2c(O)c3c(oc2=O)CCCCCC3)C2CC2)c1 (stereo unspecified)	72
CC(C)(C)OC(=O)N[C@H](Cc1cnc[nH]1)C(=O)Nc1cccc(C(c2c(O)c3c(oc2=O)CCCCCC3)C2CC2)c1 (stereo partly specified)	11
